Experimental data taken from patent publication US8758816B2, “Compositions comprising azelastine and methods of use thereof” (priority 2004, dated 2014).

System: patients with seasonal allergic rhinitis (SAR)
Test: MP 428 study: adverse events, Safety Population
Assay type: in vivo, human
Procedure: A two-week, randomized, double-blind study, which evaluated the effects of the co-administration of ASTELIN® (azelastine hydrochloride (HCl)) and FLONASE® (fluticasone propionate) compared to either product alone in patients with seasonal allergic rhinitis (SAR) was conducted during the 2006 Texas mountain cedar season. After a 5-day placebo lead-in period, 151 patients with moderate-to-severe allergic rhinitis symptoms were randomized to either: (1) (49 total patients) ASTELIN® (azelastine hydrochloride (HCl)) plus placebo saline nasal spray 2 sprays per nostril, 15 minutes apart, twice daily (AM & PM); (2) (50 total patients) FLONASE® (fluticasone propionate) plus placebo saline nasal spray, 2 sprays per nostril, 15 minutes apart, once daily (AM) and two sessions of placebo saline nasal spray, 2 sprays per nostril, 15 minutes apart (PM); or (3) (52 total patients) the co-administration of ASTELIN® (azelastine hydrochloride (HCl)) 2 sprays per nostril plus FLONASE® (fluticasone propionate) 2 sprays per nostril (AM), 15 minutes apart, and ASTELIN® (azelastine hydrochloride (HCl)) 2 sprays per nostril plus placebo saline nasal spray, 15 minutes apart, (PM) for a 2-week double-blind treatment period.
The most common adverse events (AEs) were bitter taste (8.2% in ASTELIN® (azelastine hydrochloride (HCl)) group, 2.0% in FLONASE® (fluticasone propionate) group, 13.5% in co-administration group) and headache (4.1% in ASTELIN® (azelastine hydrochloride (HCl)) group, 4.0% in FLONASE® (fluticasone propionate) group, 5.8% in co-administration group). No other AE was reported by more than one patient in any treatment group. There were no discontinuations due to AEs.

[1] = Possibly related to study drug, Safety Population
[2] = Probably related to study drug, Safety Population
[3] = Total (possibly or probably related), Safety Population

Question: Which results are given for `CCC(=O)O[C@]1(C(=O)SCF)[C@H](C)C[C@H]2[C@@H]3C[C@H](F)C4=CC(=O)C=C[C@]4(C)[C@@]3(F)[C@@H](O)C[C@@]21C` [Fluticasone, fluticasone propionate]?
Answer: Primary Reason for Discontinuation From Study: Adverse Event (All Randomized Patients): 0 (0.0) N (%); Number (%) Patients With Treatment-Related AEs by Maximum Severity (Mild): 3 (6.0) Number (%); Number (%) Patients With Treatment-Related AEs by Maximum Severity (Moderate): 1 (2.0) Number (%); Treatment-Related Adverse Events: Any Adverse Event [1]: 4 (8.0) No. of Patients (%); Treatment-Related Adverse Events: DRY MOUTH [1]: 1 (2.0) No. of Patients (%); Treatment-Related Adverse Events: DYSGEUSIA [1]: 1 (2.0) No. of Patients (%); Treatment-Related Adverse Events: EPISTAXIS [1]: 0 (0.0) No. of Patients (%); Treatment-Related Adverse Events: GASTROINTESTINAL DISORDERS, Any Preferred Term [1]: 3 (6.0) No. of Patients (%); Treatment-Related Adverse Events: HEADACHE [1]: 1 (2.0) No. of Patients (%); Treatment-Related Adverse Events: NASAL DISCOMFORT [1]: 0 (0.0) No. of Patients (%); Treatment-Related Adverse Events: NERVOUS SYSTEM DISORDERS, Any Preferred Term [1]: 1 (2.0) No. of Patients (%); Treatment-Related Adverse Events: RESPIRATORY, THORACIC AND MEDIASTINAL DISORDERS, Any Preferred Term [1]: 0 (0.0) No. of Patients (%); Treatment-Related Adverse Events: STOMACH DISCOMFORT [1]: 1 (2.0) No. of Patients (%); Treatment-Related Adverse Events: Any Adverse Event [2]: 0 (0.0) No. of Patients (%); Treatment-Related Adverse Events: DRY MOUTH [2]: 0 (0.0) No. of Patients (%); Treatment-Related Adverse Events: DYSGEUSIA [2]: 0 (0.0) No. of Patients (%); Treatment-Related Adverse Events: EPISTAXIS [2]: 0 (0.0) No. of Patients (%); Treatment-Related Adverse Events: GASTROINTESTINAL DISORDERS, Any Preferred Term [2]: 0 (0.0) No. of Patients (%); Treatment-Related Adverse Events: HEADACHE [2]: 0 (0.0) No. of Patients (%); Treatment-Related Adverse Events: NASAL DISCOMFORT [2]: 0 (0.0) No. of Patients (%); Treatment-Related Adverse Events: NERVOUS SYSTEM DISORDERS, Any Preferred Term [2]: 0 (0.0) No. of Patients (%); Treatment-Related Adverse Events: RESPIRATORY, THORACIC AND MEDIASTINAL DISORDERS, Any Preferred Term [2]: 0 (0.0) No. of Patients (%); Treatment-Related Adverse Events: STOMACH DISCOMFORT [2]: 0 (0.0) No. of Patients (%); Number (%) Patients With Any AEs: All Treatment-Related AEs (Safety Population): 4 (8.0) Number (%); Number (%) of Deaths (Safety Population): 0 (0.0) Number (%); Number (%) of Patients With Serious AEs (Safety Population): 0 (0.0) Number (%); Number of Adverse Events Reported: All Treatment-Emergent AEs (Safety Population): 5; Number of Adverse Events Reported: All Treatment-Related AEs (Safety Population): 4; Number (%) Patients With Treatment-Related AEs by Maximum Severity (Severe): 0 (0.0) Number (%); Treatment-Emergent AE: Any Adverse Event (Total): 5 (10.0) No. of Patients (%); Treatment-Emergent AE: DRY MOUTH (Total): 1 (2.0) No. of Patients (%); Treatment-Emergent AE: DYSGEUSIA (Total): 1 (2.0) No. of Patients (%); Treatment-Emergent AE: EAR AND LABYRINTH DISORDERS, Any Preferred Term (Total): 0 (0.0) No. of Patients (%); Treatment-Emergent AE: EAR PAIN (Total): 0 (0.0) No. of Patients (%); Treatment-Emergent AE: EPISTAXIS (Total): 0 (0.0) No. of Patients (%); Treatment-Emergent AE: GASTROINTESTINAL DISORDERS, Any Preferred Term (Total): 3 (6.0) No. of Patients (%); Treatment-Emergent AE: HEADACHE (Total): 2 (4.0) No. of Patients (%); Treatment-Emergent AE: MUSCULOSKELETAL AND CONNECTIVE TISSUE DISORDERS, Any Preferred Term (Total): 0 (0.0) No. of Patients (%); Treatment-Emergent AE: MYALGIA (Total): 0 (0.0) No. of Patients (%); Treatment-Emergent AE: NASAL DISCOMFORT (Total): 0 (0.0) No. of Patients (%); Treatment-Emergent AE: NECK PAIN (Total): 0 (0.0) No. of Patients (%); Treatment-Emergent AE: NERVOUS SYSTEM DISORDERS, Any Preferred Term (Total): 2 (4.0) No. of Patients (%); Treatment-Emergent AE: PHARYNGOLARYNGEAL PAIN (Total): 0 (0.0) No. of Patients (%); Treatment-Emergent AE: RESPIRATORY, THORACIC AND MEDIASTINAL DISORDERS, Any Preferred Term (Total): 0 (0.0) No. of Patients (%); Treatment-Emergent AE: STOMACH DISCOMFORT (Total): 1 (2.0) No. of Patients (%); Treatment-Related Adverse Events: Any Adverse Event [3]: 4 (8.0) No. of Patients (%); Treatment-Related Adverse Events: DRY MOUTH [3]: 1 (2.0) No. of Patients (%); Treatment-Related Adverse Events: DYSGEUSIA [3]: 1 (2.0) No. of Patients (%); Treatment-Related Adverse Events: EPISTAXIS [3]: 0 (0.0) No. of Patients (%); Treatment-Related Adverse Events: GASTROINTESTINAL DISORDERS, Any Preferred Term [3]: 3 (6.0) No. of Patients (%); Treatment-Related Adverse Events: HEADACHE [3]: 1 (2.0) No. of Patients (%); Treatment-Related Adverse Events: NASAL DISCOMFORT [3]: 0 (0.0) No. of Patients (%); Treatment-Related Adverse Events: NERVOUS SYSTEM DISORDERS, Any Preferred Term [3]: 1 (2.0) No. of Patients (%); Treatment-Related Adverse Events: RESPIRATORY, THORACIC AND MEDIASTINAL DISORDERS, Any Preferred Term [3]: 0 (0.0) No. of Patients (%); Treatment-Related Adverse Events: STOMACH DISCOMFORT [3]: 1 (2.0) No. of Patients (%); Treatment-Emergent AE: Any Adverse Event (max severity Mild): 4 (8.0) No. of Patients (%); Treatment-Emergent AE: DRY MOUTH (max severity Mild): 1 (2.0) No. of Patients (%); Treatment-Emergent AE: DYSGEUSIA (max severity Mild): 1 (2.0) No. of Patients (%); Treatment-Emergent AE: EAR AND LABYRINTH DISORDERS, Any Preferred Term (max severity Mild): 0 (0.0) No. of Patients (%); Treatment-Emergent AE: EAR PAIN (max severity Mild): 0 (0.0) No. of Patients (%); Treatment-Emergent AE: EPISTAXIS (max severity Mild): 0 (0.0) No. of Patients (%); Treatment-Emergent AE: GASTROINTESTINAL DISORDERS, Any Preferred Term (max severity Mild): 2 (4.0) No. of Patients (%); Treatment-Emergent AE: HEADACHE (max severity Mild): 2 (4.0) No. of Patients (%); Treatment-Emergent AE: MUSCULOSKELETAL AND CONNECTIVE TISSUE DISORDERS, Any Preferred Term (max severity Mild): 0 (0.0) No. of Patients (%)
